{"source": "patent US8063231B2", "about": "“Methods of treating alpha adrenergic mediated conditions” (Allergan, Inc., priority 2008, dated 2011)", "key": {"wild type rats": {"test_system": "wild type rats", "assay": "Sedative effects (total activity counts) after intraperitoneal injection", "assay_type": "in vivo, rat", "details": "for Sedative Effect (IP): 30 minutes post injection", "procedure": "FIG. 2 depicts sedative effects (total activity counts) 30 minutes post intraperitoneal injection of 1 mg/kg and 10 mg/kg doses of N-(2,3-dichlorobenzyl)-4,5-dihydro-1H-imidazol-2-amine.\nData was acquired from wild type rats administered N-(2,3-dichlorobenzyl)-4,5-dihydro-1H-imidazol-2-amine intraperitoneally (IP). Rats were split into groups of six and administered 1 mg/kg or 10 mg/kg doses of N-(2,3-dichlorobenzyl)-4,5-dihydro-1H-imidazol-2-amine to assess the sedative effects of the administration of the agent."}, "Chung model rats": {"test_system": "Chung model rats", "assay": "Tactile allodynia reversal in Chung model of chronic pain (spinal nerve ligation, von Frey hairs)", "assay_type": "in vivo, rat", "procedure": "Various concentrations of N-(2,3-dichlorobenzyl)-4,5-dihydro-1H-imidazol-2-amine were administered orally to Chung model rats. A model in accordance with Kim and Chung 1992, Pain […], pp 355-363 (Chung model), for chronic pain (in particular peripheral neuropathy) involves the surgical ligation of the L5 (and optionally the L6) spinal nerves on one side in experimental animals. Rats recovering from the surgery gain weight and display a level of general activity similar to that of normal rats. However, these rats develop abnormalities of the foot, wherein the hindpaw is moderately everted and the toes are held together. More importantly, the hindpaw on the side affected by the surgery appears to become sensitive to pain from low-threshold mechanical stimuli, such as that producing a faint sensation of touch in a human, within about 1 week following surgery. This sensitivity to normally non-painful touch is called “tactile allodynia” and lasts for at least two months. The response includes lifting the affected hindpaw to escape from the stimulus, licking the paw and holding it in the air for many seconds. None of these responses is normally seen in the control group.\nRats are anesthetized before surgery. The surgical site is shaved and prepared either with betadine or Novacaine. Incision is made from the thoracic vertebra XIII down toward the sacrum. Muscle tissue is separated from the spinal vertebra (left side) at the L4-S2 levels. The L6 vertebra is located and the transverse process is carefully removed with a small rongeur to expose the L4-L6 spinal nerves. The L5 and L6 spinal nerves are isolated and tightly ligated with 6-0 silk thread. The same procedure is done on the right side as a control, except no ligation of the spinal nerves is performed.\nA complete hemostasis is confirmed, then the wounds are sutured. A small amount of antibiotic ointment is applied to the incised area, and the rat is transferred to the recovery plastic cage under a regulated heat-temperature lamp. On the day of the experiment, at least seven days after the surgery, typically six rats per test group are administered the test drugs by intraperitoneal (i.p.) injection or oral gavage. […], the compounds are formulated in d H2O and given in a volume of 1 ml/kg body weight using an 18-gauge, 3 inch gavage needle that is slowly inserted through the esophagus into the stomach.\nTactile allodynia is measured prior to and 30 minutes after drug administration using von Frey hairs that are a series of fine hairs with incremental differences in stiffness. Rats are placed in a plastic cage with a wire mesh bottom and allowed to acclimate for approximately 30 minutes. The von Frey hairs are applied perpendicularly through the mesh to the mid-plantar region of the rats' hindpaw with sufficient force to cause slight buckling and held for 6-8 seconds. The applied force has been calculated to range from 0.41 to 15.1 grams. If the paw is sharply withdrawn, it is considered a positive response. A normal animal will not respond to stimuli in this range, but a surgically ligated paw will be withdrawn in response to a 1-2 gram hair. The 50% paw withdrawal threshold is determined using the method of Dixon, W. J., Ann. Rev. Pharmacol. Toxicol. 20:441-462 (1980) hereby incorporated by reference. The post-drug threshold is compared to the pre-drug threshold and the percent reversal of tactile sensitivity is calculated based on a normal threshold of 15.1 grams."}}, "note": "Several values for one entry are separate records, joined by “and”; a condition that tells them apart may be missing. Equal values may be shown once.", "data": [{"molecule": "Clc1cccc(CNC2=NCCN2)c1Cl", "note": "[N-(2,3-dichlorobenzyl)-4,5-dihydro-1H-imidazol-2-amine]", "values": [{"measurement": "Sedative Effect (IP)", "setting": "wild type rats; 1 mg/kg IP", "value": "No significant effect"}, {"measurement": "Sedative effect (in words)", "setting": "wild type rats; 10 mg/kg IP", "value": "significant sedative effect"}, {"measurement": "Sedative Effect (IP)", "setting": "wild type rats; 10 mg/kg IP", "value": 23, "unit": "% sedating"}, {"measurement": "Peak Allodynia Reversal (Oral, 30 min.)", "setting": "Chung model rats; 30 μg/kg oral", "value": "28% and 28% +/− 9.5%"}, {"measurement": "Peak Allodynia Reversal (Oral, 30 min.)", "setting": "Chung model rats; 100 μg/kg oral", "value": 68, "unit": "% +/− 12.7%"}, {"measurement": "Peak Allodynia Reversal (Oral, 30 min.)", "setting": "Chung model rats; 300 μg/kg oral", "value": 84, "unit": "% +/− 7.5%"}, {"measurement": "Time at which analgesic effect was seen (peak percent allodynia reversal)", "setting": "Chung model rats; single oral dose, FIG. 1", "value": "about 30 minutes"}, {"measurement": "Time of decrease of allodynia reversal to baseline", "setting": "Chung model rats; single oral dose, FIG. 1", "value": "about 120 minutes"}]}]}
